In patent US10376520B2, “Methods for the treatment of cardiovascular disorders” (Galapagos NV, priority 2015, dated 2019):

Test system: RA patients
Assay: Disease Activity Score 28 (DAS28(CRP)), Study 2
Assay type: in vivo, human
From the text: As used herein, the term ‘DAS28(CRP)’ refers to a clinical scoring ranging from 2.0 to 10.0 to measure the disease status at a given point in time, and thereby follow the progress and improvement of rheumatoid arthritis in a patient, and includes a 28 tender and swollen joint count, CRP measurement from blood analysis, and a general health assessment on a visual analog scale. A DAS28(CRP) value below 2.6 is indicative of remission, A DAS28(CRP) between 2.6 and 3.2 is indicative of low disease activity, between 3.2 and 5.1 is indicative of moderate disease activity, whereas a DAS28(CRP) above 5.1 is linked to high disease activity. (Wells et al., 2008)
Double-blind, placebo-controlled, monotherapy study in subjects with moderately to severely active RA who have an inadequate response to methotrexate (MTX) (oral or parenteral).
Twelve weeks of treatment with Compound 1 (dosed as a [Compound 1:HCl:3H2O]) at 50 mg, 100 mg, or 200 mg q.d.; or placebo. At Week 12, all subjects on placebo and the subjects on the 50 mg dose who have not achieved 20% improvement in swollen joint count (SJC66) and tender joint count (TJC68) will be assigned to 100 mg q.d. in a blinded fashion and will continue treatment until Week 24. Subjects in the other groups will maintain their randomized treatment until Week 24.
The (DAS28(CRP)) is a system developed and validated by the European League Against Rheumatism (EULAR) to measure the progress and improvement of rheumatoid arthritis and has been extensively validated (Wells et al., 2008). The DAS28(CRP) scoring includes a 28 tender and swollen joint count, CRP measurement from blood analysis, and a general health assessment on a visual analog scale (Fransen et al., 2003).
DAS28(CRP) values range from 2.0 to 10.0, and more particularly reflect the following status: • Remission: DAS28(CRP)≤2.6 • Low Disease activity: 2.6<DAS28(CRP)≤3.2 • Moderate Disease Activity: 3.2<DAS28(CRP)≤5.1 • High Disease Activity: DAS28(CRP)>5.1
In practice, the DAS28(CRP) measurement involves the evaluation 28 different joints including in the measurement (proximal interphalangeal joints (10 joints), metacarpophalangeal joints (10), wrists (2), elbows (2), shoulders (2), and knees (2)). When looking at these joints, both the number of joints with tenderness upon touching and swelling are counted.
Firstly, the patient is asked to make a vertical mark on a 100 mm Visual Analog Scale (VAS) corresponding to their general health or global disease activity. Using an electronic touchscreen, the mark is measured from the left-hand side in mm to obtain the VAS value, which is used in the formula below.
Secondly, a swollen and tender joint examination is then performed on the patient. The swollen and tender joints are recorded. From this examination are obtained the total amount of swollen joints (SJC) and the total amount of tender joints (TJC), which are used in the formula below.
Thirdly, C-reactive protein (CRP) levels (in mg/dL) are measured.
Finally, the values obtained above (VAS, JTC28, SJC28, and CRP) are computed into the following Formula to obtain the DAS28(CRP) score.
The number of subjects (N) provided in each groups corresponds to the number of patients starting the study in each group, and the DAS28 (CRP) data reported below corresponds to the responding patients continuing for the entire 24 weeks on their initial treatment course.

O=C(Nc1nc2cccc(-c3ccc(CN4CCS(=O)(=O)CC4)cc3)n2n1)C1CC1 [Compound 1, cyclopropanecarboxylic acid {5-[4-(1,1-dioxo-thiomorpholin-4-ylmethyl)-phenyl]-[1,2,4]triazolo[1,5-a]pyridin-2yl}-amide]
DAS28(CRP) mean CFB (LOCF) - over 24 weeks (50 mg q.d., Week 16): −1.88
DAS28(CRP) mean CFB (LOCF) - over 12 weeks (50 mg q.d., week 1): −0.70
DAS28(CRP) mean CFB (LOCF) - over 24 weeks (50 mg q.d., week 1): −0.75
DAS28(CRP) mean CFB (LOCF) - over 12 weeks (50 mg q.d., week 2): −0.97
DAS28(CRP) mean CFB (LOCF) - over 12 weeks (50 mg q.d., week 4): −1.37
DAS28(CRP) mean CFB (LOCF) - over 24 weeks (50 mg q.d., week 12): −1.75
% patients reaching low disease activity and/or remission at week 24 (LOCF) (100 mg q.d.): 50%
DAS28(CRP) mean CFB (LOCF) - over 12 weeks (100 mg q.d., week 1): −0.88
DAS28(CRP) mean CFB (LOCF) - over 24 weeks (100 mg q.d., week 1): −0.87
DAS28(CRP) mean CFB (LOCF) - over 12 weeks (100 mg q.d., week 4): −1.50
DAS28(CRP) mean CFB (LOCF) - over 24 weeks (100 mg q.d., week 12): −2.04
DAS28(CRP) mean CFB (LOCF) - over 24 weeks (100 mg q.d., week 16): −2.39
DAS28(CRP) mean CFB (LOCF) - over 24 weeks (200 mg q.d., week 8): −2.23
DAS28(CRP) mean CFB (LOCF) - over 24 weeks (200 mg q.d., week 20): −2.55
